# Key:
# Assay in all cases: pTyr-Var library bacterial peptide display kinase screen (enrichment scores)
# c-Src kinase domain = c-Src kinase domain (Homo sapiens, UniProt P12931); format: biochemical; conditions: sheet "Src"
# Fer kinase domain = format: biochemical, mouse; conditions: sheet "Fer"
# EPHB2 kinase domain = format: biochemical, human; conditions: sheet EPHB2
# c-Abl kinase domain = target: T1, c-Abl kinase domain (Mus musculus, UniProt P00520); format: biochemical
# T1 sequence (P00520 242-493 limits assumed): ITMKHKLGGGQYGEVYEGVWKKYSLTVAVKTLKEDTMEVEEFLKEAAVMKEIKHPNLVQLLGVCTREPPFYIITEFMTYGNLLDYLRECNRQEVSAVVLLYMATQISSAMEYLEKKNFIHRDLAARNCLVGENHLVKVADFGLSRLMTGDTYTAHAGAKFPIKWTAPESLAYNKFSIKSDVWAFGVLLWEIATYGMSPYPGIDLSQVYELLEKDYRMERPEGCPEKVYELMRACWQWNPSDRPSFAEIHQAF
# EPHB1 kinase domain = format: biochemical, human; conditions: sheet EPHB1; effect of the variant peptide relative to its reference peptide in the pTyr-Var library screen (enrichment scores)
# [1] = variant peptide versus its reference peptide in the pTyr-Var library screen
# [2] = variant peptide relative to its reference peptide, pTyr-Var library screen enrichment
# [3] = effect of variant peptide relative to its reference peptide in the pTyr-Var library screen (enrichment scores)
# [4] = fig5-data2, sheet "Abl", Screen for the variant/reference peptide pair, pTyr-Var library
# [5] = value of the variant peptide against its reference peptide in the pTyr-Var library screen with Fer
# [6] = effect of the variant peptide relative to its reference peptide in the pTyr-Var library screen
# [7] = sheet "Abl", effect of variant peptide relative to its reference peptide in pTyr-Var library screen (enrichment)
# 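Note: log2 fold change in enrichment of variant over reference.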
Sequence,Screen (c-Abl kinase domain; [4]),Screen (c-Src kinase domain; [1]),other results
LNPLIYTLRNA [OR4C46_Y285_K288R],,1.167,
LRSRVYEVPVE [SLC26A3_Y756_N753S],,,Screen (Fer kinase domain; [2]): -0.9023; Screen (EPHB2 kinase domain; [3]): -0.8191
LWKWRYEELKE [CCDC102B_Y299_K298R],0.5114,,
NCLRVYVAGRF [CRB1_Y711_E710V],-0.2235,,
NEKNIYGVPLM [BMPR2_Y247_R248G],,,Screen (Fer kinase domain; [5]): 2.844; Screen (EPHB2 kinase domain; [3]): 2.247; Screen (c-Src kinase domain; [6]): 1.983
NHFKIYNLFAE [PTEN_Y68_C71Y_YF],,-1.146,
NHFKRYNLCAE [PTEN_Y68_I67R_YF],,-2.549,
NNRVFYGNSDC [RS1_Y177_R182C],-1.349,,
PEPHIYAVADV [MYO9A_Y216_L211P],,0.7992,Screen (Fer kinase domain; [5]): 0.8588; Screen (EPHB2 kinase domain; [3]): 0.8276
PGDGEYFTLQI [TP53_Y327_L323G],,0.07795,
PKSLFYLLLKP [TRPC6_Y775_L780P],,-1.15,Screen (Fer kinase domain; [2]): -0.7977; Screen (EPHB2 kinase domain; effect of the variant relative to its reference peptide in the pTyr-Var library screen): -1.737
PLDEEYFTLQI [TP53_Y327_G325E],,-0.5709,Screen (c-Abl kinase domain; [7]): -1.267
PLDGEYSTLQI [TP53_Y327_F328S],,-0.3767,Screen (Fer kinase domain; [2]): 1.6
PLDGEYVTLQI [TP53_Y327_F328V],,-2.053,Screen (c-Abl kinase domain; [7]): -0.6513
PLDVEYFTLQI [TP53_Y327_G325V],,-0.5097,Screen (c-Abl kinase domain; [7]): -0.7642
PLQKIYNFNVL [SLC4A1_Y553_T552I_YF],,2.735,
PPDGEYFTLQI [TP53_Y327_L323P],,0.5031,
PSDLLYIPDIQ [ITGA2B_Y845_L847P],,,Screen (c-Src kinase domain; [6]): -2.46
PVQAAYQKVEA [HBB_Y131_V135E],-0.9436,,
QMVDMYASSFM [AVPR2_Y124_G122D_YF],,,Screen (c-Src kinase domain; [6]): 0.5236

Sequence,Screen (c-Abl kinase domain; [4]),Screen (c-Src kinase domain; [1]),other results
RLLVVYTWTQR [HBB_Y36_P37T],0.544,,
RQNNSYTCFTA [SLC20A2_Y386_R382Q_YF],,-1.243,Screen (EPHB2 kinase domain; [3]): -1.481
SDMGQYQCLVF [AXL_Y115_T112M],,,Screen (Fer kinase domain; [5]): 0.2934; Screen (c-Src kinase domain; [6]): 0.2602
SRNSKYNAEST [PSEN1_Y315_K311R],-1.342,,
SSWPDYVRPLP [HSPB1_Y54_G53D],,,Screen (EPHB1 kinase domain): 1.698
STTSDYQWDFS [MTDH_Y364_V368F],-0.6152,,
SVETPYVSVTF [NDRG2_Y47_G48V],,-1.163,Screen (Fer kinase domain; [5]): -1.711
SVMAEYGLFAA [VSX2_Y219_G223A_YF],,-0.3175,
SVTCTYPPALN [TP53_Y126_S127P],,,Screen (c-Abl kinase domain; [7]): 1.141
TDGIAYEFRVT [TTN_Y22256_I22261T],,,Screen (c-Abl kinase domain; [7]): -3.408
TESALYGCTIL [MAP3K21_Y724_V728I],,,Screen (Fer kinase domain; [5]): -0.01841; Screen (c-Src kinase domain; [6]): 0.3601
TVLEPYTDPFF [ZC3H18_Y367_A368T_YF],,,Screen (c-Abl kinase domain; [7]): 2.315
VEEDTYTMPST [PTK2_Y407_D402V],,0.7074,
VGAKTYKMSMA [CPS1_Y309_A304V],0.4399,,
VIVRMYDFHVL [RPF2_Y109_G106V_YF],,,Screen (Fer kinase domain; [2]): -0.9951; Screen (EPHB2 kinase domain; [3]): 1.263
VNFDFYTVNLG [GFPT1_Y367_D366Y_YF],,,Screen (c-Src kinase domain; [6]): 0.9419
VRHRHYKHTHE [CTCF_Y343_R342H],-0.4723,,
WAMPAYNRSKL [WWOX_Y293_L291P],,,Screen (c-Abl kinase domain; [7]): 4.174
WKEREYEVVRD [CPS1_Y634_I632R],,,Screen (EPHB2 kinase domain; [3]): 0.9502

# Continued, in another order:
Screen (c-Abl kinase domain; [4]),Sequence,Screen (c-Src kinase domain; [1]),other results
-1.545,LSCLAYSGKDA [FXN_Y205_S202C],,
1.339,PFQGAYLKINK [MYO1B_Y967_E969K],,
-1.096,PIPIKYKAMKK [MYD88_Y257_L252P],,
-0.6074,PQIVNYSPDCI [LDHB_Y128_K127N],,
0.8954,PVFEVYPLLNC [GATA1_Y78_Q76E],,
0.5412,QFKGKYLAKHN [CASK_Y712_D710G_YF],,
1.325,QQIFTYDSGIH [JUP_Y22_T19I_YF],,
0.7285,REGDKYVSHGA [ASS1_Y113_A111D],,
1.901,TEALFYTDDPA [ADPRS_Y75_T79P_YF],,
-0.5504,TLLAFYMGNFS [GLB1_Y552_P549L],,
0.9527,VPHECYAKVFD [ALB_Y394_D389V],,
1.283,VRFMAYTDETC [F8_Y450_F455C],,

# From publication PMC10065799, “High-throughput profiling of sequence recognition by tyrosine kinases and SH2 domains using bacterial peptide display” (eLife, 2023)
